In paper PMC10458307, “New Scaffolds of Proteasome Inhibitors: Boosting Anticancer Potential by Exploiting the Synergy of In Silico and In Vitro Methodologies” (Pharmaceuticals, 2023):
Where “and” joins values, the source holds several entries; their conditions need not be identical. Equal entries are not always repeated.

What was measured:
[1] = molecular target: T1, 20S proteasome in HT-29 cell lysates, CT-L activity (Homo sapiens, UniProt P28074); assay: Proteasome inhibition assay in cell lysates, HT-29, CT-L; conditions: for inhibition at 10 µM: read-out: percentage of proteasome inhibition, CT-L, cell lysates HT-29, at 10 µM; for inhibition at 100 µM: read-out: percentage of proteasome inhibition, CT-L, cell lysates HT-29, at 100 µM
T1 sequence (P28074 60-263): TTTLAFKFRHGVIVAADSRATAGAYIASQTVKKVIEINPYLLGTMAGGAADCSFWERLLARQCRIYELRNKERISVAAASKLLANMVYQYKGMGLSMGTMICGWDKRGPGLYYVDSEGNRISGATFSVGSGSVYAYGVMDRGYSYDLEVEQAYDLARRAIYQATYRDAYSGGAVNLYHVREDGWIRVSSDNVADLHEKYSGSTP
T1 sequence (P20618 29-241 partner): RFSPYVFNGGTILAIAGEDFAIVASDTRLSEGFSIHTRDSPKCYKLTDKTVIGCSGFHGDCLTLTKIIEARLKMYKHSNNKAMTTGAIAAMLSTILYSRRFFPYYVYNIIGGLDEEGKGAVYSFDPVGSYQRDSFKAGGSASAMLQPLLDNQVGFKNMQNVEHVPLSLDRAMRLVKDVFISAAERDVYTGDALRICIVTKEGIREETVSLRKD
Experimental: (§4) Cells were obtained from several cultured cell lines: Jurkat, K562, HT-29, and HCT116. Pellets with 20 × 10^6 cells were prepared and washed with cold sterile phosphate buffered saline (PBS), 1×, pH 7.4 (Gibco, Thermo Fisher Scientific, Paisley, UK). […] Cells were resuspended in buffer containing 50 mM TRIS-HCl pH 7.4 (Nzytech, Lisboa, Portugal), 5 mM MgCl2 (≥98% purity, Merck, Hamburg, Germany), 1 mM DTT (Merck, Hamburg, Germany), 2 mM ATP (≥98% purity, Enzo Life Sciences Inc., Farmingdale, NY, USA), and 250 mM saccharose (Merck, Hamburg, Germany). Glass beads (Merck, Hamburg, Germany) equivalent to the volume of the cell suspension were added, and the mixture was vortexed for 2 min at 4 °C. Beads and cell debris were removed using 5 min centrifugation at 1000× g and 4 °C, followed by 20 min of centrifugation at 10,000× g at 4 °C. Cell lysates containing proteasomes were resuspended in “activity buffer” [50 mM TRIS-HCl (pH 7.4), 5 mM MgCl2, 1 mM DTT, 2 mM ATP (≥98% purity, Enzo Life Sciences Inc., Farmingdale, NY, USA), and 500 µM EDTA (≥98% purity, Merck, Hamburg, Germany)]. Protein concentration was determined using the Pierce™ BCA protocol (Thermo Fisher Scientific, Rockford, IL, USA). […] DMSO was added in an equal volume as used for the untreated compounds as a way to assess/control its influence in the assay. Untreated cells were used as control. In each well of a 96-well plate, 25 µL of lysate were seeded in duplicate with 25 µL of the compound to test; in the control, 25 µL of activity buffer were added to the 25 µL of lysate. A blank (50 µL of activity buffer) was added to the wells in quadruplicate. Cell lysates, pre-treated or not with different concentrations of the test compounds, were incubated for 30 min at 37 °C. […] Stock solutions (10 mM) of each substrate were prepared in DMSO, diluted in activity buffer, and 50 µL were added to all wells (final concentration of each substrate = 100 µM), followed by an incubation at 37 °C for 60 min. Samples fluorescence was measured at an excitation wavelength of 360 nm and emission of 465 nm; the fluorescence measures were performed using the GloMax-Multi + Detection System (Promega Corp., Madison, WI, USA). Activity was evaluated in fluorescence units, after being converted to percentage of proteasome inhibition and, whenever possible, expressed as IC50 by plotting the inhibition data of each compound at different concentrations against the log of the concentration of the inhibitor, using the GraphPad Prism software version 7. At least eight different concentrations of the test compounds were used.

[2] = Cell viability, MTT assay, HT-29; assay type: cell-based, human; conditions: human, HT-29 colorectal carcinoma cells, read-out: percentage of cell viability, MTT, HT-29; for viability at 72 h, 10 µM: at 10 µM; for viability at 72 h, 100 µM: at 100 µM
Experimental: (§1) Whenever possible, additional concentrations were tested and IC50 values were determined.
(§2) Human leukemia Jurkat E6.1 T-cell line and K562-cell line were originally obtained from ATCC Collections (Manassas, VA, USA); human HT-29 and HCT116 colorectal carcinoma-cell lines were obtained from ECACC (Porton Down, Porton, UK). Cells were passaged for less than 6 months after and routinely tested for mycoplasma contamination using Mycoalert detection kit (Lonza, Basel, Switzerland). Jurkat, K562, and HT-29 cells were maintained in Roswell Park Memorial Institute (RPMI) 1640 with GlutaMAX™, supplemented with 1% antibiotic mixture (100 µg/mL streptomycin and 100 U/mL penicillin) and 10% heat-inactivated foetal bovine serum (FBS) (all from Gibco, Thermo Fisher Scientific, Paisley, UK). HCT116 cells were maintained in Dulbecco’s Modified Eagle Medium (DMEM) with GlutaMAX™, supplemented with 1% antibiotic mixture (100 µg/mL streptomycin and 100 U/mL penicillin) and 10% heat-inactivated FBS (all from Gibco, Thermo Fisher Scientific, Paisley, UK). Incubation was performed at 37 °C in a 5% CO2 atmosphere. Cells were routinely passaged every 2 or 3 days at 70–90% confluence; TrypLE Express (Gibco, Thermo Fisher Scientific, Paisley, UK) was used as dissociation agent for adherent cells. Trypan blue (Gibco, Thermo Fisher Scientific, Paisley, UK) was used to assess cell viability using the dye exclusion test.
(§3) To assess cell viability, the MTT assay was performed. Jurkat/K562/HT-29/HCT116 cell lines were seeded in triplicate (10,000 cells/well) in 96-well plates with 50 µL of complete medium and incubated at 37 °C, 5% CO2 for 24 h to allow the cells to adhere to the plate (in the case of adherent cells). […] Untreated cells seeded in triplicate were used as control. The blank was performed in triplicate with 100 µL of culture medium. The cells were incubated with the compounds, in triplicate, in 100 µL of total volume, at 37 °C, 5% CO2 for 72 h. […] In suspension cells (Jurkat), 25 µL of MTT were directly added to each well and, after 3 h 30 m of incubation, 100 µL of DMSO were added to solubilize the formazan crystals; in adherent cells (HT-29 and HCT116), the culture medium was removed, 25 µL of MTT were added to each well and, after 3 h 30 m of incubation, upon MTT removal, 100 µL of DMSO were added to solubilize the formazan crystals. After 15 min, the samples absorbance was measured at 570 nm and the percentage of cell viability was determined.

[3] = molecular target: T2, 20S proteasome in HCT116 cell lysates, CT-L activity (Homo sapiens, UniProt P28074); assay: Proteasome inhibition assay in cell lysates, HCT116, CT-L; conditions: for percentage of proteasome inhibition, CT-L, cell lysates HCT116: at 100 µM; for percentage of proteasome inhibition, CT-L, cell lysates HCT116 / inhibition at 100 µM: Table 2 legend: bortezomib 10 µM; for inhibition at 100 µM: read-out: percentage of proteasome inhibition, CT-L, cell lysates HCT116, at 100 µM; for inhibition at 10 µM: read-out: percentage of proteasome inhibition, CT-L, cell lysates HCT-116, at 10 µM
T2 sequence (P28074 60-263): T1 sequence (P28074 60-263)
T2 sequence (P20618 29-241 partner): T1 sequence (P20618 29-241 partner)
Experimental: as §4

[4] = molecular target: T3, 20S proteasome in HCT116 cell lysates, C-L activity (Homo sapiens, UniProt P28072); assay: Proteasome inhibition assay in cell lysates, HCT116, C-L; conditions: for percentage of proteasome inhibition, C-L, cell lysates HCT116: at 100 µM; for percentage of proteasome inhibition, C-L, cell lysates HCT116 / inhibition at 100 µM: Table 2 legend: bortezomib 10 µM, NI = No inhibition; for inhibition at 100 µM: read-out: percentage of proteasome inhibition, C-L, cell lysates HCT116, at 100 µM; for inhibition at 10 µM: read-out: percentage of proteasome inhibition, C-L, cell lysates HCT-116, at 10 µM
T3 sequence (P28072 35-239 limits assumed): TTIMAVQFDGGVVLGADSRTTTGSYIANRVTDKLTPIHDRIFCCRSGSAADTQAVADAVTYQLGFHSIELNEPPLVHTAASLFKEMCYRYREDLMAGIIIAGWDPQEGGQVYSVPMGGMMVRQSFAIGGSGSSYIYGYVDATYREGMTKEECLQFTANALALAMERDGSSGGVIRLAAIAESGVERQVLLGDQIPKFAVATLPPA
T3 sequence (Q99436 44-277 partner): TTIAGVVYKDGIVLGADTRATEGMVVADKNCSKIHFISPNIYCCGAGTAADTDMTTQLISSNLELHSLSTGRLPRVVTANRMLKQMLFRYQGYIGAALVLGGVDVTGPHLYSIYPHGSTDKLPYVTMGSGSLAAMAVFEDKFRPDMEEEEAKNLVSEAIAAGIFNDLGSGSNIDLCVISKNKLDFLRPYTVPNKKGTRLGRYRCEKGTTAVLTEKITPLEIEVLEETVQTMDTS
Experimental: as §4

[5] = molecular target: T4, 20S proteasome in HT-29 cell lysates, C-L activity (Homo sapiens, UniProt P28072); assay: Proteasome inhibition assay in cell lysates, HT-29, C-L; conditions: for inhibition at 10 µM: read-out: percentage of proteasome inhibition, C-L, cell lysates HT-29, at 10 µM; for inhibition at 100 µM: read-out: percentage of proteasome inhibition, C-L, cell lysates HT-29, at 100 µM
T4 sequence (P28072 35-239 limits assumed): T3 sequence (P28072 35-239 limits assumed)
T4 sequence (Q99436 44-277 partner): T3 sequence (Q99436 44-277 partner)
Experimental: as §4

[6] = Cell viability, MTT assay, HCT116; assay type: cell-based, human; conditions: human, HCT116 colorectal carcinoma cells; for viability at 72 h, 10 µM: at 10 µM, read-out: percentage of cell viability, MTT, HCT-116; for viability at 72 h, 100 µM: at 100 µM, read-out: percentage of cell viability, MTT, HCT116
Experimental: as §1, §2, §3

HCT116 cells = assay: Cell viability, MTT assay, HCT116; assay type: cell-based, human; conditions: 72 h; for IC50: Homo sapiens, HCT-116, mean ± SD; for percentage of cell viability, MTT, HCT116: at 100 µM
Experimental: as §1, §2, §3

[7] = molecular target: T5, 20S proteasome in Jurkat cell lysates, C-L activity (Homo sapiens, UniProt P28072); assay: Proteasome inhibition assay in cell lysates, Jurkat, C-L; conditions: for inhibition at 10 µM: read-out: percentage of proteasome inhibition, C-L, cell lysates Jurkat, at 10 µM; for inhibition at 100 µM: read-out: percentage of proteasome inhibition, C-L, cell lysates Jurkat, at 100 µM
T5 sequence (P28072 35-239 limits assumed): T3 sequence (P28072 35-239 limits assumed)
T5 sequence (Q99436 44-277 partner): T3 sequence (Q99436 44-277 partner)
Experimental: as §4

[8] = at 100 µM, Table 2 legend: bortezomib 10 µM
[9] = Table 2 legend: bortezomib 10 µM

SMILES	IC50 [1] [µM]	percentage of proteasome inhibition, CT-L, cell lysates HT-29 [1, 8]	inhibition at 10 µM [1] [%]	inhibition at 100 µM [1, 9] [%]	viability at 72 h, 10 µM [2] [%]	viability at 72 h, 100 µM [2] [%]	percentage of proteasome inhibition, CT-L, cell lysates HCT116 [3]	inhibition at 100 µM [3] [%]	inhibition at 10 µM [3] [%]	percentage of proteasome inhibition, C-L, cell lysates HCT116 [4] [%]	inhibition at 100 µM [4] [%]	inhibition at 10 µM [4] [%]	percentage of proteasome inhibition, C-L, cell lysates HT-29 [5, 8]	inhibition at 10 µM [5] [%]	inhibition at 100 µM [5, 9] [%]	viability at 72 h, 10 µM [6] [%]	viability at 72 h, 100 µM [6] [%]	percentage of proteasome inhibition, C-L, cell lysates Jurkat [7, 8]	inhibition at 10 µM [7] [%]	inhibition at 100 µM [7, 9] [%]	other results
C#CCCN1CCN(c2ccc(-n3c(=O)ccc4cnc5ccc(-c6ccc(N)nc6)cc5c43)cc2C(F)(F)F)CC1 [Compound 4, 9-(6-Aminopyridin-3-yl)-1-(4-(4-(but-3-yn-1-yl)piperazin-1-yl)-3-(trifluoromethyl)phenyl)benzo[h][1,6]naphthyridin-2(1H)-one]	31.3	98%	10.1	97.9	94.1	34.3	98%	98	22.1	90	90.1	69.2	82%	0	82.1	38.4	0	99%	8.16	98.9	IC50 [3]: 35.7 µM; IC50 [4]: 28.9 µM; IC50 [5]: 35.2 µM; IC50 (HCT116 cells): 1020 nM; IC50 [7]: 27 µM
CC(C)C[C@H](NC(=O)[C@H](Cc1ccccc1)NC(=O)c1cnccn1)B(O)O [Bortezomib, bortezomib, reference compound]		99.37% and 99%			0	0	99.14% and 99%			99			99.05% and 99%			0	0	94.22% and 94%			percentage of proteasome inhibition, CT-L, cell lysates HT-29 ([1]; at 10 µM): 97.99%; percentage of proteasome inhibition, CT-L, cell lysates HCT-116 ([3]; at 10 µM): 97.94%; percentage of proteasome inhibition, C-L, cell lysates HCT-116 ([4]; at 10 µM): 94.21%; percentage of proteasome inhibition, C-L, cell lysates HT-29 ([5]; at 10 µM): 92.93%; IC50 (HCT116 cells): 10.7 nM; percentage of proteasome inhibition, C-L, cell lysates Jurkat ([7]; at 10 µM): 92.00%
Cc1ccc(/C(=N/NS(=O)(=O)c2ccc([N+](=O)[O-])cc2)Sc2cc(Cl)c(C)cc2S(N)(=O)=O)cc1 [Compound 3]		31%	0	31.4	100	100	33%	33	0		0	0	19%	0	18.6	100	95.2	25%	0	25.4	percentage of cell viability, MTT, HCT116 (HCT116 cells): 95%
O=C1c2ccccc2C(=O)c2c(Nc3ccc(S(=O)(=O)N(CCO)CCO)cc3)ccc(O)c21 [Compound 2]	73.8	62%	2.11	62.2	79.9	65.4	74%	74.2	6.93	74	74.1	11.1	69%	6.78	69.2	98	89.1	74%	26.9	73.5	IC50 [3]: 50.9 µM; IC50 [4]: 43.5 µM; IC50 [5]: 62.1 µM; percentage of cell viability, MTT, HCT116 (HCT116 cells): 89%; IC50 [7]: 42.4 µM
CC(C)c1nc(CN(C)C(=O)N[C@@H](CCN2CCOCC2)C(=O)N[C@H](CC[C@H](Cc2ccccc2)NC(=O)OCc2cncs2)Cc2ccccc2)cs1 [Compound 5, cobicistat, reference compound]	84.3	81%	0	81.2	98.3	25.4	67%	66.9	0	28	28.1	0	29%	0	29.3	98.7	23.7	36%	0	36.2	IC50 [3]: 95.9 µM; IC50 (HCT116 cells): 58400 nM; percentage of cell viability, MTT, HCT116 (HCT116 cells): 24%
